Like-named read-outs stand apart in the source and are kept apart here.
Tests used:
Format in all cases: cell-based
S. aureus = settings: for Peptide MIC values: agarose dilution
S. epidermidis = tested on: S. epidermidis
E. faecium = tested on: E. faecium
E. faecalis = tested on: E. faecalis
E. cloacae = E. cloacae strain ECL007
P. aeruginosa = settings: for Peptide MIC values: agarose dilution
K. pneumoniae = tested on: K. pneumoniae
E. coli = settings: for Peptide MIC values: agarose dilution
S. maltophilia = tested on: S. maltophilia
S. marcescens = tested on: S. marcescens
A. calcoaceticus = tested on: A. calcoaceticus
S. pneumoniae = test: Agarose dilution assay (MIC); settings: agarose dilution
[1] = tested on: microorganisms with acquired resistance; test: microbe, parasite or virus in culture; settings: S. aureus; combination with Mupirocin; in µg/mL

| Sequence | MIC (S. epidermidis; S. epidermidis strain SE010) | MIC (E. cloacae) | MIC (P. aeruginosa; P. aeruginosa strain PA004) | MIC (K. pneumoniae; K. pneumoniae strain KP001) | MIC (S. maltophilia; S. maltophilia strain SMA002) | MIC (S. marcescens; S. marcescens strain SMS003) | MIC (A. calcoaceticus; A. calcoaceticus strain AC002) | MIC (S. epidermidis; S. epidermidis strain SE002) | MIC (E. faecalis; E. faecalis strain EFS002) | MIC (E. coli; E. coli strain ECO002) | MIC (S. marcescens; S. marcescens strain SMS004) | MIC (E. faecium; E. faecium strain EFM001) | MIC (E. coli; E. coli strain ECO003) | MIC (E. faecium; E. faecium strain EFM003) | MIC (S. maltophilia; S. maltophilia strain SMA001) | MIC (K. pneumoniae; K. pneumoniae strain KP002) | also measured |
| --- | --- | --- | --- | --- | --- | --- | --- | --- | --- | --- | --- | --- | --- | --- | --- | --- | --- |
| ILKKFPWFPWRRK [MBI 11A6CN] | 4 µg/mL | >128 µg/mL | >128 µg/mL | 32 µg/mL | 128 µg/mL | >128 µg/mL | 2 µg/mL |  |  |  |  |  |  |  |  |  | MIC (S. aureus; S. aureus SA016): 2 µg/mL; MIC (S. aureus; S. aureus strain SA014): 4 µg/mL; MIC (S. aureus; S. aureus strain SA093): 0.5 µg/mL; MIC (E. faecium; E. faecium EFM003): 2 µg/mL; MIC (E. faecalis; E. faecalis EFS004): 64 µg/mL; MIC (E. faecalis; E. faecalis strain EFS001): 1 µg/mL; MIC (E. faecalis; E. faecalis strain EFS008): 8 µg/mL; MIC (E. coli; E. coli strain ECO005): 16 µg/mL |
| ILKKWAWWPWRRK [MBI 11C3CN] |  | >128 µg/mL |  | 128 µg/mL | 64 µg/mL |  | 4 µg/mL | 2 µg/mL | 32 µg/mL | 16 µg/mL | >128 µg/mL |  |  |  |  |  | MIC (S. aureus; S. aureus strain SA005): 2 µg/mL; MIC (E. faecium; E. faecium strain EFM002): 1 µg/mL; MIC (P. aeruginosa; P. aeruginosa strain PA005): >128 µg/mL |
| ILKKWPWPWRRK [MBI 11A4CN] |  | >128 µg/mL | >128 µg/mL | >128 µg/mL | >128 µg/mL |  | 8 µg/mL | 8 µg/mL | 64 µg/mL |  | >128 µg/mL | 32 µg/mL | 32 µg/mL |  |  |  | MIC (S. aureus; S. aureus strain SA005): 2 µg/mL |
| ILKKWPWW PWKKK [MBI 11B10CN] | 4 µg/mL | >128 µg/mL | >128 µg/mL | 32 µg/mL | 128 µg/mL | >128 µg/mL | 2 µg/mL |  | 64 µg/mL |  |  |  |  | 4 µg/mL |  |  | MIC (S. aureus; S. aureus strain SA008): 2 µg/mL; MIC (S. aureus; S. aureus strain SA014): 4 µg/mL; MIC (S. aureus; S. aureus strain SA093): 1 µg/mL; MIC (E. faecalis; E. faecalis strain EFS001): 8 µg/mL; MIC (E. faecalis; E. faecalis strain EFS008): 64 µg/mL; MIC (E. coli; E. coli strain ECO005): 16 µg/mL |
| ILKKWPWWAWRRK [MBI 11C4CN] |  | >128 µg/mL |  | >128 µg/mL | 64 µg/mL |  | 4 µg/mL | 4 µg/mL | 32 µg/mL |  | >128 µg/mL |  |  | 2 µg/mL |  |  | MIC (S. aureus; S. aureus strain SA009): 4 µg/mL; MIC (P. aeruginosa; P. aeruginosa strain PA005): >128 µg/mL; MIC (E. coli; E. coli strain ECO005): 32 µg/mL |
| ILKKWPWWPRRK [MBI 11G6CN] |  | >128 µg/mL | >128 µg/mL | >128 µg/mL |  | >128 µg/mL |  | 8 µg/mL | 128 µg/mL | 32 µg/mL |  |  |  | 4 µg/mL | >128 µg/mL |  | MIC (S. aureus; S. aureus strain SA006): 2 µg/mL; MIC (A. calcoaceticus; A. calcoaceticus strain AC001): >128 µg/mL |
| ILKKWPWWPWR [MBI 11G14CN] |  | >128 µg/mL |  |  | 128 µg/mL |  | 8 µg/mL | 8 µg/mL | 32 µg/mL |  | >128 µg/mL | 16 µg/mL | 32 µg/mL |  |  | 128 µg/mL | MIC (S. aureus; S. aureus strain SA013): 0.5 µg/mL; MIC (P. aeruginosa; P. aeruginosa strain PA006): >128 µg/mL |
| ILKKWPWWPWRRIMILKKAGS [MBI 11D6CN] | 4 µg/mL | >32 µg/mL |  |  |  |  | 4 µg/mL |  | 4 µg/mL | 32 µg/mL | >64 µg/mL |  |  | 1 µg/mL | >64 µg/mL | >64 µg/mL | MIC (S. aureus; S. aureus strain SA009): 8 µg/mL; MIC (P. aeruginosa; P. aeruginosa strain PA024): >64 µg/mL |
| ILKKWPWWPWRRK [MBI 11E2CN] | 4 µg/mL | >128 µg/mL |  |  |  |  | 4 µg/mL |  | 32 µg/mL | 8 µg/mL | >128 µg/mL | 16 µg/mL |  |  | 64 µg/mL | 64 µg/mL | MIC (S. aureus; S. aureus strain SA016): 2 µg/mL; MIC (P. aeruginosa; P. aeruginosa strain PA001): >128 µg/mL |
| ILKKWPWWWRRK [MBI 11G5CN] |  | >128 µg/mL |  | >128 µg/mL | 64 µg/mL |  | 4 µg/mL | 2 µg/mL | 16 µg/mL |  | >128 µg/mL |  | 16 µg/mL |  |  |  | MIC (S. aureus; S. aureus strain SA012): 4 µg/mL; MIC (E. faecium; E. faecium strain EFM002): 8 µg/mL; MIC (P. aeruginosa; P. aeruginosa strain PA003): >128 µg/mL |
| ILKKWVWWVWRRK [MBI 11F1CN] |  | >128 µg/mL | 64 µg/mL |  |  | >128 µg/mL |  |  |  |  |  |  | 8 µg/mL | 2 µg/mL |  | 32 µg/mL | MIC (S. aureus; S. aureus strain SA009): 2 µg/mL; Peptide MIC values (S. aureus; S. aureus MRSA9): 2 µg/mL; Peptide MIC values (S. aureus; S. aureus MRSA13): 16 µg/mL; Peptide MIC values (S. aureus; S. aureus MRSA17): 2 µg/mL; Peptide MIC values (E. faecium; agarose dilution): 8 µg/mL; Peptide MIC values (S. pneumoniae; S. pneumoniae 406LE8): 128 µg/mL; Peptide MIC values (S. pneumoniae; S. pneumoniae 60120): 128 µg/mL; Peptide MIC values (S. pneumoniae; S. pneumoniae ATCC 49619): 64 µg/mL; MIC (E. faecalis; E. faecalis strain EFS004): 16 µg/mL; Peptide MIC values (P. aeruginosa; P. aeruginosa ATCC 27853): 64 µg/mL; Peptide MIC values (P. aeruginosa; P. aeruginosa NCTC 10662): 64 µg/mL; Peptide MIC [1]: 8; Peptide MIC values (E. coli; E. coli ATCC 25922): 8 µg/mL; Peptide MIC values (E. coli; E. coli NCTC 10418): 2 µg/mL; MIC (S. marcescens; S. marcescens strain SBSM1): >128 µg/mL; Peptide MIC values (S. marcescens; agarose dilution, S. marcescens SM82): >128 µg/mL |
| ILKNPNNPWRR [MBI 11G7ACN] |  | >32 µg/mL |  |  |  |  | 4 µg/mL | 4 µg/mL |  | 16 µg/mL | >32 µg/mL | 8 µg/mL |  |  | 32 µg/mL | >32 µg/mL | MIC (S. aureus; S. aureus strain SA010): 1 µg/mL; MIC (E. faecalis; E. faecalis strain EFS008): 32 µg/mL; MIC (P. aeruginosa; P. aeruginosa strain PA006): >32 µg/mL |
| ILKWPWWPWRK [MBI 11B5CN] | 1 µg/mL | >128 µg/mL | >128 µg/mL | 16 µg/mL | 64 µg/mL | >128 µg/mL | 4 µg/mL |  | 16 µg/mL |  |  |  |  |  |  |  | MIC (S. aureus; S. aureus strain SA005): 2 µg/mL; MIC (S. aureus; S. aureus strain SA014): 2 µg/mL; MIC (S. aureus; S. aureus strain SA093): 1 µg/mL; MIC (E. faecium; E. faecium strain EFM002): 1 µg/mL; MIC (E. faecalis; E. faecalis strain EFS001): 2 µg/mL; MIC (E. faecalis; E. faecalis strain EFS008): 8 µg/mL; MIC (E. coli; E. coli strain ECO005): 16 µg/mL |
| ILRRWPWWPWRRR [MBI 11B9ACN] |  | >128 µg/mL |  |  |  |  |  | 2 µg/mL |  |  | >128 µg/mL | 4 µg/mL | 8 µg/mL |  | 16 µg/mL | 32 µg/mL | MIC (S. aureus; S. aureus strain SA019): 2 µg/mL; MIC (E. faecalis; E. faecalis strain EFS004): 8 µg/mL; MIC (P. aeruginosa; P. aeruginosa strain PA005): >128 µg/mL; MIC (A. calcoaceticus; A. calcoaceticus strain AC001): 32 µg/mL |
| LKKWPWWPWRRK [MBI 11D1CN] | 8 µg/mL | >128 µg/mL |  |  |  | >128 µg/mL |  |  | 32 µg/mL | 16 µg/mL |  | 16 µg/mL |  |  | 64 µg/mL | 64 µg/mL | MIC (S. aureus; S. aureus strain SA004): 2 µg/mL; MIC (P. aeruginosa; P. aeruginosa strain PA003): >128 µg/mL; MIC (A. calcoaceticus; A. calcoaceticus strain AC001): >128 µg/mL |
| WWKKWPWWPWRRK [MBI 11C5CN] |  | >128 µg/mL |  |  | 16 µg/mL |  |  | 2 µg/mL | 16 µg/mL |  | >128 µg/mL |  |  | 2 µg/mL |  | 16 µg/mL | MIC (S. aureus; S. aureus strain SA009): 2 µg/mL; MIC (P. aeruginosa; P. aeruginosa strain PA003): 64 µg/mL; MIC (E. coli; E. coli strain ECO001): 8 µg/mL; MIC (A. calcoaceticus; A. calcoaceticus strain AC001): 32 µg/mL |
